# Test results published in patent publication US20050215544A1, “Methods of treating HIV infection” (priority 2004, published 2005).
# Columns and labels:
# [1] = tested on: HIV-1 LAI; test: microbe, parasite or virus in culture; conditions: Human immunodeficiency virus 1, MT2, 120 h
# Protocol: (§1) Virus and cell lines. The T-cell lines, MT-2 and PM-1 were obtained through the AIDS Research and Reference Reagent Program, NIAID, and were contributed by Dr. D. Richman and Dr. R. Gallo, respectively. Both cell lines were cultured in RPMI 1640 medium supplemented with 10% fetal bovine serum, 2 mM L-glutamine and sub-cultured twice a week. The LAI strain of HIV-1 was obtained from the Fred Hutchinson Cancer Research Center, and the Bal strain was from NIH. Both virus stocks were amplified and titered in MT-2 cells (LAI) and PM-1 cells (Bal) using a virus infectivity assay.
# (§2) Drug Susceptibility and Cytotoxicity Assays. For drug susceptibility assays, MT-2 cells were infected with HIV-1 LAI (or PM-1 cells with HIV-1 Bal) at an MOI of 0.005, and seeded into 96-well microtiter plates ([…] cells/ml) containing serial dilutions of test compounds. […] Each drug ratio consisted of an array of 3-fold serial dilutions, and was performed in quadruplicate. The plates were incubated at 37° C./5% CO2. The MT-2 cells infected with HIV-1 LAI were incubated for 5 days. On day-five post-infection, 20 μl from each well was harvested and quantitated by a reverse transcriptase (RT) assay, or in samples involving non-nucleoside RT inhibitors, an MTS assay. The PM-1 cells infected with HIV-1 Bal and used for studying the combinations with CCR5 inhibitors were incubated for six days. On day-six post-infection, 20 μl from each well was harvested, 20- and 50-fold diluted and quantitated by p24 assay. Cytotoxicity assays were performed using uninfected cells, exposed to the same drug combinations, and incubated for six days. Cell viability was determined by an MTS assay. The CC50 values were calculated by using the exponential form of the median effect equation as mentioned below for calculation of EC50.
# (§3) In this equation, Fa stands for “fraction affected,” and represents the fraction of the viral load that has been inactivated. […] ED50 is drug concentration that is expected to reduce the amount of virus by 50%, and m is a parameter that reflects the slope of the concentration-response curve.
# In carrying out the combination experiments below, the EC50 for Compound 1 and each comparator compound was determined during the course of each study, and used in the subsequent data analysis.
# [2] = tested on: HIV-1 LAI; test: Two-drug combination antiviral assay with Compound 1 (combination indices, Chou and Rideout); format: cell-based; conditions: combination with Compound 1; for Combination Indices at 50% HIV Inhibition (Confidence Interval) / Combination Indices at 75% HIV Inhibition (Confidence Interval) / Combination Indices at 90% HIV Inhibition (Confidence Interval): 95% CI in parenthesis; for Overall Result of two-drug combination: all ratios and inhibition levels
# Protocol: as §1, §2
# Analysis of Drug Combination Effects. For determination of CI values, drugs were diluted in a fixed ratio and multiple ratios were analyzed. The drug serial dilutions spanned a range of concentrations near the EC50 value of each compound, so that equivalent antiviral activities could be compared. Concentration-response curves were estimated for each individual drug and every combination using the median-effect equation. The equation was fit using a nonlinear regression routine (Proc Nlin) in PC SAS version 8.01 (SAS Institute Inc., SAS Version 8.01, Cary, NC: SAS Institute Inc., 1990).
# as §3
# To assess antiviral effects of different drug combination treatments, combination indices (CIs) were calculated according to Chou and Rideout. The combination index was computed as CI=[D]1/[Dm]1+[D]2/[Dm]2
# In this equation [Dm]1 and [Dm]2 are the concentrations of drugs that would individually produce a specific level of effect, while [D]1 and [D]2 are the concentrations of drugs in combination that would produce the same level of effect.
# Theoretically, additivity is implied if the CI is equal to one, synergy if the CI is less than one, and antagonism if the CI is greater than one. […] At best, we can construct a range that contains the likely values for the CI, given the noise in the data. In this report, these ranges are reported in parentheses next to each point estimate of the CI. […] If the range fell entirely above 1.0, we would infer antagonistic behavior. If the range were to include 1.0, we would infer additivity.
# [3] = EC50 ratio 1:1 (Compound 1 to comparator)
# [4] = EC50 ratio 1:2.5 (Compound 1 to comparator)
# [5] = EC50 ratio 2.5:1 (Compound 1 to comparator)
EC50 [1] [nM],SMILES,"Combination Indices at 50% HIV Inhibition (Confidence Interval) [2, 3]","Combination Indices at 75% HIV Inhibition (Confidence Interval) [2, 3]","Combination Indices at 90% HIV Inhibition (Confidence Interval) [2, 3]","Combination Indices at 50% HIV Inhibition (Confidence Interval) [2, 4]","Combination Indices at 75% HIV Inhibition (Confidence Interval) [2, 4]","Combination Indices at 90% HIV Inhibition (Confidence Interval) [2, 4]","Combination Indices at 50% HIV Inhibition (Confidence Interval) [2, 5]","Combination Indices at 75% HIV Inhibition (Confidence Interval) [2, 5]","Combination Indices at 90% HIV Inhibition (Confidence Interval) [2, 5]",Overall Result of two-drug combination [2],Overall Result of two-drug combination ([2]; listed as delavirdine)
5,Cc1cccc(C)c1OCC(=O)N[C@@H](Cc1ccccc1)[C@@H](O)C[C@H](Cc1ccccc1)NC(=O)[C@H](C(C)C)N1CCCNC1=O [Lopinavir],"0.68 (0.49, 0.87)","0.80 (0.48, 1.11)","0.95 (0.36, 1.55)","0.74 (0.57, 0.92)","0.56 (0.37, 0.74)","0.42 (0.21, 0.64)","0.65 (0.44, 0.86)","0.77 (0.43, 1.11)","0.92 (0.28, 1.57)",Additive-,
1,CC(C)(C)NC(=O)[C@@H]1CN(Cc2cccnc2)CCN1C[C@@H](O)C[C@@H](Cc1ccccc1)C(=O)N[C@H]1c2ccccc2C[C@H]1O [Indinavir],"0.73 (0.58, 0.88)","0.75 (0.54, 0.97)","0.77 (0.42, 1.12)","0.42 (0.22, 0.63)","0.57 (0.20, 0.95)","0.78 (0.00, 1.64)","0.56 (0.43, 0.69)","0.67 (0.45, 0.89)","0.81 (0.38, 1.23)",Moderate-,
5,CC(C)c1nc(CN(C)C(=O)N[C@H](C(=O)N[C@@H](Cc2ccccc2)C[C@H](O)[C@H](Cc2ccccc2)NC(=O)OCc2cncs2)C(C)C)cs1 [Ritonavir],"0.25 (0.19, 0.31)","0.38 (0.26, 0.50)","0.58 (0.28, 0.88)","0.16 (0.12, 0.20)","0.25 (0.18, 0.32)","0.40 (0.19, 0.60)","0.40 (0.23, 0.57)","0.66 (0.29, 1.04)","1.11 (0.05, 2.17)",Additive-,

# Second part, the compound before the results:
SMILES,EC50 [1] [nM],"Combination Indices at 50% HIV Inhibition (Confidence Interval) [2, 3]","Combination Indices at 75% HIV Inhibition (Confidence Interval) [2, 3]","Combination Indices at 90% HIV Inhibition (Confidence Interval) [2, 3]","Combination Indices at 50% HIV Inhibition (Confidence Interval) [2, 4]","Combination Indices at 75% HIV Inhibition (Confidence Interval) [2, 4]","Combination Indices at 90% HIV Inhibition (Confidence Interval) [2, 4]","Combination Indices at 50% HIV Inhibition (Confidence Interval) [2, 5]","Combination Indices at 75% HIV Inhibition (Confidence Interval) [2, 5]","Combination Indices at 90% HIV Inhibition (Confidence Interval) [2, 5]",Overall Result of two-drug combination [2],Overall Result of two-drug combination ([2]; listed as delavirdine)
Nc1nc(=O)n([C@@H]2CS[C@H](CO)O2)cc1F [Emtricitabine],36,"0.56 (0.49, 0.62)","0.39 (0.34, 0.45)","0.28 (0.22, 0.33)","0.45 (0.38, 0.51)","0.62 (0.50, 0.74)","0.86 (0.59, 1.14)","0.22 (0.20, 0.24)","0.32 (0.28, 0.37)","0.48 (0.38, 0.58)",Synergistic,
"O=C(C(=O)N1CCN(C(=O)c2ccccc2)CC1)c1c[nH]c2c(-n3ccnn3)ncc(F)c12 [Compound 1, 1-Benzoyl-4-[2-[4-fluoro-7-(1H-1,2,3-triazol-1-yl)-1H-pyrrolo[2,3-c]pyridin-3-yl]-1,2-dioxoethyl]-piperazine]",0.1 to 0.3,,,,,,,,,,synergistic or additive-synergistic,
CC(C)CN(C[C@@H](O)[C@H](Cc1ccccc1)NC(=O)O[C@H]1CCOC1)S(=O)(=O)c1ccc(N)cc1 [Amprenavir],35,"0.47 (0.33, 0.62)","0.76 (0.44, 1.09)","1.37 (6.46, 2.28)","0.63 (0.45, 0.81)","0.72 (0.44, 1.01)","0.99 (0.38, 1.60)","0.20 (0.12, 0.28)","0.60 (0.28, 0.92)","1.87 (0.24, 3.50)",Additive-,
CC(C)(C)NC(=O)[C@@H]1C[C@@H]2CCCC[C@@H]2CN1C[C@@H](O)[C@H](Cc1ccccc1)NC(=O)[C@H](CC(N)=O)NC(=O)c1ccc2ccccc2n1 [Saquinavir],4,"0.50 (0.40, 0.61)","0.92 (0.64, 1.19)","1.71 (0.90, 2.51)","0.24 (0.21, 0.26)","0.32 (0.27, 0.36)","0.43 (0.33, 0.52)","0.14 (0.12, 0.16)","0.31 (0.25, 0.37)","0.68 (0.45, 0.92)",Additive-,
CC(C)Nc1cccnc1N1CCN(C(=O)c2cc3cc(NS(C)(=O)=O)ccc3[nH]2)CC1 [Delavirdine],99,"0.79 (0.55, 1.03)","0.59 (0.35, 0.84)","0.45 (0.16, 0.73)","0.99 (0.72, 1.26)","0.90 (0.56, 1.23)","0.81 (0.34, 1.29)","0.56 (0.28, 0.84)","0.51 (0.16, 0.86)","0.45 (0.00, 0.95)",Additive-,additive to synergistic
COC(=O)N[C@H](C(=O)N[C@@H](Cc1ccccc1)[C@@H](O)CN(Cc1ccc(-c2ccccn2)cc1)NC(=O)[C@@H](NC(=O)OC)C(C)(C)C)C(C)(C)C [Atazanavir],0.5,"0.76 (0.64, 0.89)","0.89 (0.69, 1.10)","1.07 (0.68, 1.46)","0.28 (0.25, 0.31)","0.38 (0.33, 0.44)","0.54 (0.42, 0.66)","0.08 (0.07, 0.09)","0.14 (0.12, 0.17)","0.25 (0.18, 0.33)",Additive-,
